# Results: ChEMBL document CHEMBL6078668, “Synthesis and biological evaluation of lappaconitine analogues as potential anti-neuroinflammatory agents by side chain modification and scaffold hopping strategy” (Bioorg Med Chem, 2025)
# Calls of active or inactive are those of the source. The calls are words filed in the database; no cut-off is given here.
# Key:
# [1] = Cytotoxicity against C57BL/6 mouse BV-2 cells assessed as survival rate at 20 uM incubated for 24 hrs by MTT assay relative to control; assay type: toxicity, cell-based; details: read-out: INH
# BV-2 [2] = assay: Anti-neuroinflammatory activity against LPS-stimulated C57BL/6 mouse BV-2 cells assessed as inhibition of NO release at 20 uM preincubated with compound for 4 hrs followed by LPS addition and measured after 24 hrs by Griess reagent based assay relative to control; assay type: functional; details: C57BL/6, BV-2, time 28 hrs
# [3] = Cytotoxicity against C57BL/6 mouse BV-2 cells assessed as survival rate at 30 uM incubated for 24 hrs by MTT assay relative to control; assay type: toxicity, cell-based; details: read-out: Survival
# BV-2 [4] = assay: Anti-neuroinflammatory activity against LPS-stimulated C57BL/6 mouse BV-2 cells assessed as inhibition of NO release at 30 uM preincubated with compound for 4 hrs followed by LPS addition and measured after 24 hrs by Griess reagent based assay relative to control; assay type: functional; details: C57BL/6, BV-2, time 28 hrs
# BV-2 [5] = assay: Anti-neuroinflammatory activity against LPS-stimulated C57BL/6 mouse BV-2 cells assessed as inhibition of NO release preincubated with compound for 4 hrs followed by LPS addition and measured after 24 hrs by Griess reagent based assay; assay type: functional, cell-based; details: C57BL/6, BV-2
# BV-2 [6] = assay: Cytotoxicity against C57BL/6 mouse BV-2 cells assessed as effect on cell viability at 30 to 60 uM incubated for 24 hrs by MTT assay; assay type: toxicity, cell-based; details: bv-2, 24 h, dose 30-60 µM
# BV-2 [7] = assay: Anti-neuroinflammatory activity against LPS-stimulated C57BL/6 mouse BV-2 cells assessed as inhibition of NO release at 30 to 60 uM preincubated with compound for 4 hrs followed by LPS addition and measured after 24 hrs by Griess reagent based assay; assay type: functional, cell-based; details: dose 30-60 µM, time 28.0 hrs
# BV-2 [8] = assay: Anti-neuroinflammatory activity against LPS-stimulated C57BL/6 mouse BV-2 cells assessed as decrease in TNF-alpha expression level preincubated with compound for 4 hrs followed by LPS addition and measured after 24 hrs by ELISA; assay type: functional, cell-based; details: dose 30-60 µM, time 28.0 hrs
# BV-2 [9] = assay: Anti-neuroinflammatory activity against LPS-stimulated C57BL/6 mouse BV-2 cells assessed as decrease in IL-6 expression level preincubated with compound for 4 hrs followed by LPS addition and measured after 24 hrs by ELISA; assay type: functional, cell-based; details: dose 30-60 µM, time 28.0 hrs
# BV-2 [10] = assay: Anti-neuroinflammatory activity against LPS-stimulated C57BL/6 mouse BV-2 cells assessed as decrease in IL-1beta expression level preincubated with compound for 4 hrs followed by LPS addition and measured after 24 hrs by ELISA; assay type: functional, cell-based; details: dose 30-60 µM, time 28.0 hrs
# BV-2 [11] = assay: Anti-neuroinflammatory activity against LPS-stimulated C57BL/6 mouse BV-2 cells assessed as decrease in TNF-alpha mRNA expression level at 30 to 60 uM preincubated with compound for 4 hrs followed by LPS addition and measured after 24 hrs by RT-PCR analysis; assay type: functional, cell-based; details: dose 30-60 µM, time 28.0 hrs
# BV-2 [12] = assay: Anti-neuroinflammatory activity against LPS-stimulated C57BL/6 mouse BV-2 cells assessed as decrease in IL-6 mRNA expression level at 30 to 60 uM preincubated with compound for 4 hrs followed by LPS addition and measured after 24 hrs by RT-PCR analysis; assay type: functional, cell-based; details: dose 30-60 µM, time 28.0 hrs
# BV-2 [13] = assay: Anti-neuroinflammatory activity against LPS-stimulated C57BL/6 mouse BV-2 cells assessed as decrease in IL-1beta mRNA expression level at 30 to 60 uM preincubated with compound for 4 hrs followed by LPS addition and measured after 24 hrs by RT-PCR analysis; assay type: functional, cell-based; details: dose 30-60 µM, time 28.0 hrs
# BV-2 [14] = assay: Anti-neuroinflammatory activity against LPS-stimulated C57BL/6 mouse BV-2 cells assessed as downregulation of COX-2 mRNA expression level at 30 to 60 uM preincubated with compound for 4 hrs followed by LPS addition and measured after 24 hrs by RT-PCR analysis; assay type: functional, cell-based; details: dose 30-60 µM, time 28.0 hrs
# BV-2 [15] = assay: Anti-neuroinflammatory activity against LPS-stimulated C57BL/6 mouse BV-2 cells assessed as downregulation of iNOS mRNA expression level at 30 to 60 uM preincubated with compound for 4 hrs followed by LPS addition and measured after 24 hrs by RT-PCR analysis; assay type: functional, cell-based; details: dose 30-60 µM, time 28.0 hrs
# BV-2 [16] = assay: Anti-neuroinflammatory activity against LPS-stimulated C57BL/6 mouse BV-2 cells assessed as downregulation of COX-2 protein expression level by Western blot analysis; assay type: functional, cell-based; details: dose 30-60 µM
# BV-2 [17] = assay: Anti-neuroinflammatory activity against LPS-stimulated C57BL/6 mouse BV-2 cells assessed as downregulation of iNOS protein expression level by Western blot analysis; assay type: functional, cell-based; details: dose 30-60 µM
# BV-2 [18] = assay: Downregulation of TLR4 protein expression in C57BL/6 mouse BV-2 cells at 30 to 60 uM preincubated with compound for 4 hrs followed by LPS stimulation by Western blot analysis; assay type: functional, cell-based; details: dose 30-60 µM
# BV-2 [19] = assay: Downregulation of MyD88 protein expression in C57BL/6 mouse BV-2 cells at 30 to 60 uM preincubated with compound for 4 hrs followed by LPS stimulation by Western blot analysis; assay type: functional, cell-based; details: dose 30-60 µM
# BV-2 [20] = assay: Inhibition of NFkappaB p65 nuclear translocation in LPS-stimulated C57BL/6 mouse BV-2 cells at 30 to 60 uM preincubated with compound for 4 hrs followed by LPS stimulation by Western blot analysis; assay type: cell-based; details: dose 30-60 µM
# BV-2 [21] = assay: Inhibition of IkappaB phosphorylation in LPS-stimulated C57BL/6 mouse BV-2 cells at 30 to 60 uM preincubated with compound for 4 hrs followed by LPS stimulation by Western blot analysis; assay type: cell-based; details: dose 30-60 µM
# [22] = Acute toxicity in Kunming mouse assessed as animal death at 325 to 928 mg/kg, po measured after 14 days; assay type: organism-based; details: in vivo, 336 h, dose 325-928 mg/kg, time 14 day
# [23] = Acute toxicity in Kunming mouse assessed as animal death at 250 mg/kg, po measured after 14 days; assay type: organism-based; details: in vivo, 336 h, time 14 day
# [24] = Acute toxicity in po dosed Kunming mouse assessed as lethal dose measured after 14 days; assay type: organism-based; details: in vivo, time 14 day
# [25] = Acute toxicity in Kunming mouse assessed as histological abnormalities in heart at 250 mg/kg, po measured after 14 days by H and E staining based analysis; assay type: organism-based; details: in vivo, 336 h, time 14 day
# [26] = Acute toxicity in Kunming mouse assessed as histological abnormalities in liver at 250 mg/kg, po measured after 14 days by H and E staining based analysis; assay type: organism-based; details: in vivo, 336 h, time 14 day
# [27] = Acute toxicity in Kunming mouse assessed as histological abnormalities in spleen at 250 mg/kg, po measured after 14 days by H and E staining based analysis; assay type: organism-based; details: in vivo, 336 h, time 14 day
# [28] = Acute toxicity in Kunming mouse assessed as histological abnormalities in lung at 250 mg/kg, po measured after 14 days by H and E staining based analysis; assay type: organism-based; details: in vivo, 336 h, time 14 day
# [29] = Acute toxicity in Kunming mouse assessed as histological abnormalities in kidney at 250 mg/kg, po measured after 14 days by H and E staining based analysis; assay type: organism-based; details: in vivo, 336 h, time 14 day
# [30] = Cytotoxicity against C57BL/6 mouse BV-2 cells assessed as survival rate at 10 uM incubated for 24 hrs by MTT assay relative to control; assay type: toxicity, cell-based; details: read-out: Survival
# BV-2 [31] = assay: Anti-neuroinflammatory activity against LPS-stimulated C57BL/6 mouse BV-2 cells assessed as inhibition of NO release at 10 uM preincubated with compound for 4 hrs followed by LPS addition and measured after 24 hrs by Griess reagent based assay relative to control; assay type: functional; details: C57BL/6, BV-2, time 28 hrs
smiles,measurement,setting,value
CCN1C[C@]2(COC)CC[C@H](OC)[C@]34C1[C@@H](C[C@H]23)[C@@]1(O)C[C@H](OC)[C@H]2C[C@@H]4[C@]1(O)[C@H]2OC(=O)c1ccccc1NS(=O)(=O)c1cccc(F)c1,"viability at 24 h, 20 µM",[1],100%
same,inhibition at 20 µM,BV-2 [2],18.5%
CCc1ccc(C(=O)Nc2ccccc2C(=O)OC[C@@]23CC[C@H](OC)[C@]45C([C@@H](C[C@H]24)[C@@]2(O)C[C@H](OC)[C@H]4C[C@@H]5[C@]2(O)[C@H]4OC)N(CC)C3)cc1,"viability at 24 h, 20 µM",[1],102%
same,inhibition at 20 µM,BV-2 [2],21.7%
CCN1C[C@]2(COC(=O)c3ccccc3NC(=O)c3ccc(Cl)s3)CC[C@H](OC)[C@]34C1[C@@H](C[C@H]23)[C@@]1(O)C[C@H](OC)[C@H]2C[C@@H]4[C@]1(O)[C@H]2O,"viability at 24 h, 20 µM",[1],104%
same,inhibition at 20 µM,BV-2 [2],45.3%
CCN1C[C@]2(OC(=O)c3ccccc3NC(=O)S(=O)(=O)c3cccc(F)c3)CC[C@H](OC)[C@]34C1[C@@H](C[C@H]23)[C@@]1(O)C[C@H](OC)[C@H]2C[C@@H]4[C@]1(O)[C@H]2OC,"viability at 24 h, 30 µM",[3],107%
same,inhibition at 30 µM,BV-2 [4],85.8%
same,IC50,BV-2 [5],9.98 µM
same,Activity,BV-2 [6],Non-toxic
same,Activity,BV-2 [7],Active
same,Activity,BV-2 [8],Dose-dependent-effect
same,Activity,BV-2 [9],Dose-dependent-effect
same,Activity,BV-2 [10],Dose-dependent-effect
same,Activity,BV-2 [11],Active
same,Activity,BV-2 [12],Active
same,Activity,BV-2 [13],Active
same,Activity,BV-2 [14],Active
same,Activity,BV-2 [15],Active
same,Activity,BV-2 [16],Dose-dependent-effect
same,Activity,BV-2 [17],Dose-dependent-effect
same,Activity,BV-2 [18],Active
same,Activity,BV-2 [19],Active
same,inhibition,BV-2 [20],Active
same,inhibition,BV-2 [21],Active
same,Activity,[22],Toxic
same,Activity,[23],Non-toxic
same,LD50 at 336 h,[24],508 mg/kg
same,Activity,[25],Non-toxic
same,Activity,[26],Non-toxic
same,Activity,[27],Non-toxic
same,Activity,[28],Non-toxic
same,Activity,[29],Non-toxic
CCN1C[C@]2(COC)CC[C@H](OC)[C@]34C1[C@@H](C[C@H]23)[C@@]1(O)C[C@H](OC)[C@H]2C[C@@H]4[C@]1(O)[C@H]2OC(=O)c1ccccc1NS(=O)(=O)c1ccc(Br)s1,"viability at 24 h, 20 µM",[1],110%
same,inhibition at 20 µM,BV-2 [2],32.8%
CCN1C[C@]2(OC(=O)c3ccccc3NC(=O)S(=O)(=O)c3c(Cl)sc4ccccc34)CC[C@H](OC)[C@]34C1[C@@H](C[C@H]23)[C@@]1(O)C[C@H](OC)[C@H]2C[C@@H]4[C@]1(O)[C@H]2OC,"viability at 24 h, 10 µM",[30],98.5%
same,inhibition at 10 µM,BV-2 [31],26.4%
